In US9676708B2 (The Johns Hopkins University, priority 2012, dated 2017):
Counter-ions that a name gives are not always drawn. Like-named read-outs stand apart in the source and are kept apart here.

What was measured:
[1] = pH 7.4; see U.S. Pat. No. 8,030,356; cited from earlier work
[2] = HNO yield from N2O headspace analysis after complete decomposition, compared to 2BrPA; type: physicochemical; settings: for % HNO: 37° C. in PBS (pH 7.4), N2O headspace analysis, reported in comparison to 2BrPA (SEM 5%; n = 3); for HNO production compared to 2BrPA: in words; for HNO yield: of the amount of HNO from 2BrPA
Excerpt: As used herein, a compound is a “nitroxyl donor” if it donates nitroxyl under physiological conditions. As used herein, the presently disclosed nitroxyl donors alternatively may be referred to as “a compound” or “the compound.” Preferably, the nitroxyl donor is capable of donating an effective amount of nitroxyl in vivo and has a safety profile indicating the compound would be tolerated by an individual in the amount necessary to achieve a therapeutic effect. One of ordinary skill in the art would be able to determine the safety of administering particular compounds and dosages to live subjects. One of skill in the art also may determine whether a compound is a nitroxyl donor by evaluating whether it releases HNO under physiological conditions. Compounds are easily tested for nitroxyl donation with routine experiments. Although it is impractical to directly measure whether nitroxyl is donated, several tests are accepted for determining whether a compound donates nitroxyl. For example, the compound of interest can be placed in solution, for example in water, in a sealed container. After sufficient time for disassociation has elapsed, such as from several minutes to several hours, the headspace gas is withdrawn and analyzed to determine its composition, such as by gas chromatography and/or mass spectroscopy. If the gas N2O is formed (which occurs by HNO dimerization), the test is positive for nitroxyl donation and the compound is a nitroxyl donor. The level of nitroxyl-donating ability may be expressed as a percentage of a compound's theoretical maximum. A compound that donates a “significant level of nitroxyl” intends a compound that donates 40% or more or 50% or more of its theoretical maximum amount of nitroxyl. In one variation, the compounds for use herein donate 60% or more of the theoretical maximum amount of nitroxyl. In another variation, the compounds for use herein donate 70% or more of the theoretical maximum amount of nitroxyl. In another variation, the compounds for use herein donate 80% or more of the theoretical maximum amount of nitroxyl. In another variation, the compounds for use herein donate 90% or more of the theoretical maximum amount of nitroxyl. In yet another variation, the compounds for use herein donate between about 70% and about 90% of the theoretical maximum amount of nitroxyl. In yet another variation, the compounds for use herein donate between about 85% and about 95% of the theoretical maximum amount of nitroxyl. In yet another variation, the compounds for use herein donate between about 90% and about 95% of the theoretical maximum amount of nitroxyl.

[3] = Decomposition of 2-bromo-benzenesulfonamidyl-alkylamino carbonates 2 (2BrPA release) in PBS, UV/vis or HPLC; type: physicochemical
Procedure: The donor 2BrPA produces HNO in high yield at pH 7.4 with a single defined half-life of approximately 2 minutes. See U.S. Pat. No. 8,030,356, to Toscano et al., which is incorporated herein by reference in its entirety. Changing (R) on the trigger amine or the spacer length (n) in 2 makes it possible to tune the effective HNO production rate through controlled 2BrPA release (Table 2). Donors 2, with release rates slower than the half-life of 2BrPA, produce HNO at the rate of cyclization. The decomposition products, rates, and HNO production were analyzed and compared to 2BrPA (Table 2).

[4] = Monitoring of 2d decomposition byproducts by NMR; type: physicochemical; settings: decomposition of 2d
Excerpt: The cyclized byproduct 3, expected from an HNO forming pathway, from 2d, formed in approximately 60% yield (Scheme 4). The yield of 3 is consistent with the yield of HNO detected (64%) (Table 2). The cyclized product 5 also was identified and formed in approximately 10% yield. Another byproduct formed in approximately 30% yield.

Question: For `O=S(=O)(NO)c1ccccc1Br` [2BrPA, N-hydroxy-2-bromobenzenesulfonamide], which HNO production [1] is on record?
Answer: high yield

Question: Which “% HNO” value [2] does the source give for `CNCCOC(=O)ONS(=O)(=O)c1ccccc1Br.Cl` [Cmpd 2a, 2-Bromo-benzenesulfonamidyl-2-(methylamino)-ethyl carbonate hydrochlor-ide] here?
Answer: 93%

Question: With `Cl.O=C(OCCNCc1ccccc1)ONS(=O)(=O)c1ccccc1Br` [Cmpd 2b, 2-Bromo-benzenesulfonamidyl-2-(benzylamino)-ethyl carbonate hydrochlori-de] as the compound, how does the “% HNO” value [2] read?
Answer: 99%

Question: For `CC(C)NCCOC(=O)ONS(=O)(=O)c1ccccc1Br` [Cmpd 2c, 2-Bromo-benzenesulfonamidyl-2-(iso-propylamino)-ethyl carbonate hydroc-hloride], which half-life ([3]; PBS buffer, pH 7.4, text, fast-releasing derivatives (UV/vis values of Table 2), PBS buffer, read-out: half-life) is on record?
Answer: < 60 s

Question: What about the half-life ([3]; PBS, pH 7.4, 37° C. in PBS (pH 7.4), determined by UV/vis (SEM ± 5%; n = 3), read-out: t1/2 (converted)) of the same compound?
Answer: 47 s

Question: And the “% HNO” value [2]?
Answer: 97%

Question: Which half-life ([3]; PBS, pH 7.4, 37° C. in PBS (pH 7.4), determined by HPLC (SEM ± 5%; n = 3), read-out: t1/2 (converted)) does the source give for `CC(C)(C)NCCOC(=O)ONS(=O)(=O)c1ccccc1Br` [Cmpd 2d, 2-Bromo-benzenesulfonamidyl-2-(tert-butylamino)-ethyl carbonate hydrochl-oride] here?
Answer: 2820 s

Question: What about the “% HNO” value [2] of the same compound?
Answer: 64%

Question: What about the “HNO production compared to 2BrPA” value [2] of the same compound?
Answer: significantly lower

Question: What about the HNO yield [2] of the same compound?
Answer: 64%

Question: What about the “yield of another byproduct” value [4] of the same compound?
Answer: approximately 30%

Question: And the “yield of cyclized byproduct 3 (HNO forming pathway)” value [4]?
Answer: approximately 60%

Question: What about the “yield of cyclized product 5” value [4] of the same compound?
Answer: approximately 10%

Question: With `Cl.O=C(OCCNc1ccccc1)ONS(=O)(=O)c1ccccc1Br` [Cmpd 2e, 2-Bromo-benzenesulfonamidyl-2-(phenylamino)-ethyl carbonate hydrochlo-ride] as the compound, how does the “% HNO” value [2] read?
Answer: 91%

Question: For `CC(C)NCCCOC(=O)ONS(=O)(=O)c1ccccc1Br.Cl` [Cmpd 2h, 2-Bromo-benzenesulfonamidyl-3-(iso-propylamino)-propyl carbonate hydro-chloride], which “% HNO” value [2] is on record?
Answer: 30%

Question: And the “HNO production compared to 2BrPA” value [2]?
Answer: significantly lower

Question: What about the HNO yield [2] of the same compound?
Answer: 30%

Question: Which half-life ([3]; 37° C. in PBS (pH 7.4), determined by UV/vis (SEM ± 5%; n = 3), read-out: t1/2 (converted)) does the source give for `COc1ccc(NCCOC(=O)ONS(=O)(=O)c2ccccc2Br)cc1` [hydrochloride] here?
Answer: 50 s

Question: And the half-life ([3]; pH 7.4, fast-releasing derivatives (UV/vis values of Table 2), PBS buffer, read-out: half-life)?
Answer: 48 s

Question: What about the “% HNO” value [2] of the same compound?
Answer: 93%

Question: Which half-life ([3]; PBS, pH 7.4, slow-releasing derivatives (HPLC values of Table 2), read-out: half-life) does the source give for `O=C(OCCNc1ccc(Cl)cc1)ONS(=O)(=O)c1ccccc1Br` [hydrochloride] here?
Answer: 3000 s

Question: And the “% HNO” value [2]?
Answer: 69%

Question: And the “HNO production compared to 2BrPA” value [2]?
Answer: significantly lower

Question: What about the HNO yield [2] of the same compound?
Answer: 69%
